Among the data in ChEMBL document CHEMBL2073798, “P-Glycoprotein mediates the efflux of quinidine across the blood-brain barrier” (J Pharmacol Exp Ther, 1997) are Activity values, retold here.

Each structure is given as a SMILES string.

Data set [1] has as its target T1, ATP-dependent translocase ABCB1 (Mus musculus, UniProt P21447). Put plainly: TP_TRANSPORTER: increase in brain concentration in mdr1a(-/-) mouse. The class given is functional, organism-based. The conditions noted are these: in vivo.
For data set [2], the target named is T1, ATP-dependent translocase ABCB1. Put plainly: TP_TRANSPORTER: increase in Quinidine concentration in brain in FVB mouse. The class given is functional, organism-based. The conditions noted are these: in vivo.

T1 sequence (P21447 whole entry): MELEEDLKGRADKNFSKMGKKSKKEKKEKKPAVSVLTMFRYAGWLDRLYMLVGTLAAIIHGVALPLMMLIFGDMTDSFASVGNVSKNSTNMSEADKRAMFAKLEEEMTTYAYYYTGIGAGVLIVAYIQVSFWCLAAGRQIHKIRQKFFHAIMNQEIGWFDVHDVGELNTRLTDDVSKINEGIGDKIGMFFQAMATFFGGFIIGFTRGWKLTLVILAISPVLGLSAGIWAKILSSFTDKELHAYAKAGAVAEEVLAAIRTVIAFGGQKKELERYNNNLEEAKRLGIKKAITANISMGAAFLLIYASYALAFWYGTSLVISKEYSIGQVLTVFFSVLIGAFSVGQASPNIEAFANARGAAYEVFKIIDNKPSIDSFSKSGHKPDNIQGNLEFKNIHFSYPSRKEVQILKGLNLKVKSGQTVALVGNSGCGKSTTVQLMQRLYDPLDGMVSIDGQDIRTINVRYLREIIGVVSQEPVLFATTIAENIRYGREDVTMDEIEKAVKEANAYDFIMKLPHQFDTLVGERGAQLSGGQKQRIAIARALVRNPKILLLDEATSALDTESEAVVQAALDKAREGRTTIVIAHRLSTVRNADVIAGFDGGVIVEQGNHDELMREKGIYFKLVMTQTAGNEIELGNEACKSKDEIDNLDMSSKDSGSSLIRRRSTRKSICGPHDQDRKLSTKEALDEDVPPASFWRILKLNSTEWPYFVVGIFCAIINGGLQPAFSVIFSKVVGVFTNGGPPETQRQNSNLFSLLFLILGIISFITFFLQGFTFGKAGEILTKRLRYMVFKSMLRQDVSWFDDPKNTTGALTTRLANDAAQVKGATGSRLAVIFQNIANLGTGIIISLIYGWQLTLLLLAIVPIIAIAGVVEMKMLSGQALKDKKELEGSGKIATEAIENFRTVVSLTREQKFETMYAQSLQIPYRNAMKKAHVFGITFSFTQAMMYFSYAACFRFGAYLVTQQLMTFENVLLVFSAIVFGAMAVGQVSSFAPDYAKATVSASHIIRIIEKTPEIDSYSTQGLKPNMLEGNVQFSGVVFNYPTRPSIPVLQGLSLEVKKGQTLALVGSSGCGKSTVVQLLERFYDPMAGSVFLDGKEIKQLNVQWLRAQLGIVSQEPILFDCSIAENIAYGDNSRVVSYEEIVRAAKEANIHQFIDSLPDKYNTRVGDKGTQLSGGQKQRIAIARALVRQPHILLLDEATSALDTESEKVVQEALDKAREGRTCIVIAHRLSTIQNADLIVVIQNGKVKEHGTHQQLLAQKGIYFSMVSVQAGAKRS

With `C=C[C@H]1C[N@@]2CC[C@H]1C[C@@H]2[C@@H](O)c1ccnc2ccc(OC)cc12` [QUINIDINE], the Activity entry in data set [1] is “substrate [+]”.

`C/C=C/C[C@@H](C)C(=O)[C@H]1C(=O)N[C@@H](C(C)C)C(=O)N(C)CC(=O)N(C)[C@@H](CC(C)C)C(=O)N[C@@H](C(C)C)C(=O)N(C)[C@@H](CC(C)C)C(=O)N[C@@H](C)C(=O)N[C@H](C)C(=O)N(C)[C@@H](CC(C)C)C(=O)N(C)[C@@H](CC(C)C)C(=O)N(C)[C@@H](C(C)C)C(=O)N1C` [VALSPODAR] had an Activity in data set [2] of 10.2 fold.
